Test results from patent publication US20230265151A1, “GIP/GLP1 CO-AGONIST COMPOUNDS” (priority 2020, published 2023).
Read-outs that look alike come from different tables or passages of the source.

How the values were obtained:
[1] = biological target: T1, hGCGR (Homo sapiens, UniProt P47871); assay: Functional cAMP formation (HTRF) in HEK-293 clonal cells expressing hGCGR, 0.1% bovine casein, without or with 1.0% human serum albumin; type: cell-based; conditions: cAMP, incubated at 37° C., 0.1% bovine casein (no human serum albumin), geometric mean
T1 construct: expressed in transfected cells
T1 sequence (P47871 26-477): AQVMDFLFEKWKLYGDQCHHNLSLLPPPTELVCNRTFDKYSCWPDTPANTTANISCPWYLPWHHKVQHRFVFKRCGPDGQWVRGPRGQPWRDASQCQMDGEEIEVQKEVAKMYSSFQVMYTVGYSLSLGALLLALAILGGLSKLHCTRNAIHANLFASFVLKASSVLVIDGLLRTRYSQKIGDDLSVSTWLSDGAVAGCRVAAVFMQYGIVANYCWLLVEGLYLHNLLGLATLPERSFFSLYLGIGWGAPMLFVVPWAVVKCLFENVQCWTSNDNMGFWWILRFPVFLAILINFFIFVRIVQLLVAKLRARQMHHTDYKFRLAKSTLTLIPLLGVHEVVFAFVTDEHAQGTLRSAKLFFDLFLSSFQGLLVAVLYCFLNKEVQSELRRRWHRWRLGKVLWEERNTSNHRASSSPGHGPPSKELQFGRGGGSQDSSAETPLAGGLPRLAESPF
In short: (§1)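 Readings of the HTRF 665/620 nm ratio, which falls as cAMP rises, were converted to nM cAMP using a standard curve after 30 min peptide exposure at 37° C.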

[2] = biological target: T2, hGIPR (Homo sapiens, UniProt P48546); assay: Functional cAMP formation (HTRF) in HEK-293 clonal cells expressing hGIPR, 0.1% bovine casein, without or with 1.0% human serum albumin; type: cell-based; conditions: for Emax: 37° C., 0.1% bovine casein, arithmetic mean; for EC50: cAMP, incubated at 37° C., 0.1% bovine casein (no human serum albumin), geometric mean
T2 construct: expressed in transfected cells
T2 sequence (P48546 22-466): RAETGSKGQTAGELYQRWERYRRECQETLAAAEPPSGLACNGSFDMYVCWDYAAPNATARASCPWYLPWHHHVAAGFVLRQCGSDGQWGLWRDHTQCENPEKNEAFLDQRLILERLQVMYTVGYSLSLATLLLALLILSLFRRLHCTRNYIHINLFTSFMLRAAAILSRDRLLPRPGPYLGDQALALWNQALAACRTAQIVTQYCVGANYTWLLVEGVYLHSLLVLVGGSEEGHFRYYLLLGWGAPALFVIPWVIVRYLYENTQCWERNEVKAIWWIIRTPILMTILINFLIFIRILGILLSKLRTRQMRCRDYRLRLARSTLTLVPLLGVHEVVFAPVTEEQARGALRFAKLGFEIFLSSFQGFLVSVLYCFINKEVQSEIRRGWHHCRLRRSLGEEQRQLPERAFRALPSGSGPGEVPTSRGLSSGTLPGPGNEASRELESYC
In short: as §1

[3] = read-out: hGCGR EC50, nM (SEM, n)
[4] = HEK293, percent of maximal response to GIP(1-42)NH2, read-out: hGIPR Emax, % ± SEM
[5] = read-out: hGIPR EC50, nM (SEM, n)

Structure (SMILES)	EC50 [1, 3] [nM]	Emax [2, 4] [%]	EC50 [2, 5] [nM]	EC50 ([1]; hGCGR EC50, nM (SEM, n)) [nM]	Emax ([2]; HEK293, read-out: hGIPR Emax, % ± SEM, percent of maximal response to GIP(1-42)NH2) [%]	EC50 ([2]; hGIPR EC50, nM (SEM, n)) [nM]
CC[C@H](C)[C@H](NC(=O)[C@H](CC(C)C)NC(=O)[C@](C)(Cc1ccc(O)cc1)NC(=O)[C@@H](CCC(=O)O)NC(=O)[C@@H](NC(=O)[C@H](Cc1ccccc1)NC(=O)[C@H](CCC(=O)O)NC(=O)C(C)(C)NC(=O)[C@H](CCC(N)=O)NC(=O)[C@H](C)NC(=O)[C@H](CCCCNC(=O)COCCOCCNC(=O)COCCOCCNC(=O)CC[C@H](NC(=O)CCCCCCCCCCCCC(=O)O)C(=O)O)NC(=O)[C@H](CCCN)NC(=O)[C@H](CC(=O)O)NC(=O)[C@H](CC(C)C)NC(=O)[C@](C)(CC(C)C)NC(=O)[C@@H](NC(=O)[C@H](CO)NC(=O)[C@H](Cc1ccsc1)NC(=O)[C@H](CC(=O)O)NC(=O)[C@H](CO)NC(=O)[C@@H](NC(=O)[C@](C)(Cc1ccccc1F)NC(=O)[C@@H](NC(=O)CNC(=O)[C@H](CCC(=O)O)NC(=O)C(C)(C)NC(=O)[C@@H](N)Cc1ccc(O)cc1)[C@@H](C)O)[C@@H](C)O)[C@@H](C)CC)[C@@H](C)CC)C(=O)N[C@@H](CCC(=O)O)C(=O)NCC(=O)NCC(=O)N[C@@H](CCCCNC(=O)COCCOCCNC(=O)COCCOCCNC(=O)CC[C@H](NC(=O)CCCCCCCCCCCCC(=O)O)C(=O)O)C(=O)N[C@@H](CO)C(=O)N[C@@H](CO)C(=O)NCC(=O)N[C@@H](C)C(=O)N1CCC[C@H]1C(=O)N1CCC[C@H]1C(=O)N1CCC[C@H]1C(=O)N[C@@H](CO)C(N)=O [Example 146]	> 9950	76.5	0.0198			
CC[C@H](C)[C@H](NC(=O)[C@H](CC(C)C)NC(=O)[C@](C)(Cc1ccc(O)cc1)NC(=O)[C@@H](CCC(=O)O)NC(=O)[C@@H](NC(=O)[C@H](Cc1ccccc1)NC(=O)[C@H](CCC(=O)O)NC(=O)C(C)(C)NC(=O)[C@H](CCC(N)=O)NC(=O)[C@H](C)NC(=O)[C@H](CCCCNC(=O)COCCOCCNC(=O)COCCOCCNC(=O)CC[C@H](NC(=O)CCCCCCCCCCCCC(=O)O)C(=O)O)NC(=O)[C@H](CCCN)NC(=O)[C@H](CC(=O)O)NC(=O)[C@H](CC(C)C)NC(=O)[C@](C)(CC(C)C)NC(=O)[C@@H](NC(=O)[C@H](CO)NC(=O)[C@H](Cc1ccncc1)NC(=O)[C@H](CC(=O)O)NC(=O)[C@H](CO)NC(=O)[C@@H](NC(=O)[C@](C)(Cc1ccccc1F)NC(=O)[C@@H](NC(=O)CNC(=O)[C@H](CCC(=O)O)NC(=O)C(C)(C)NC(=O)[C@@H](N)Cc1ccc(O)cc1)[C@@H](C)O)[C@@H](C)O)[C@@H](C)CC)[C@@H](C)CC)C(=O)N[C@@H](CCC(=O)O)C(=O)NCC(=O)N[C@@H](CCCN)C(=O)N[C@@H](CCCCNC(=O)COCCOCCNC(=O)COCCOCCNC(=O)CC[C@H](NC(=O)CCCCCCCCCCCCC(=O)O)C(=O)O)C(=O)N[C@@H](CO)C(=O)N[C@@H](CO)C(=O)NCC(=O)N[C@@H](C)C(=O)N1CCC[C@H]1C(=O)N1CCC[C@H]1C(=O)N1CCC[C@H]1C(=O)N[C@@H](CO)C(N)=O [Example 152]	> 9950	97.9 ± 3.25				
CC[C@H](C)[C@H](NC(=O)[C@H](CC(C)C)NC(=O)[C@](C)(Cc1ccc(O)cc1)NC(=O)[C@H](CCCCNC(=O)[C@@H](N)CCCCNC(=O)[C@@H](N)CCCCNC(=O)CC[C@H](NC(=O)CCCCCCCCCCCCC(=O)O)C(=O)O)NC(=O)[C@@H](NC(=O)[C@H](Cc1ccccc1)NC(=O)[C@H](CCC(=O)O)NC(=O)C(C)(C)NC(=O)[C@H](CCC(N)=O)NC(=O)[C@H](C)NC(=O)[C@H](CCCCNC(=O)[C@@H](N)CCCCNC(=O)[C@@H](N)CCCCNC(=O)CC[C@H](NC(=O)CCCCCCCCCCCCC(=O)O)C(=O)O)NC(=O)[C@H](CCCN)NC(=O)[C@H](CC(=O)O)NC(=O)[C@H](CC(C)C)NC(=O)[C@](C)(CC(C)C)NC(=O)[C@@H](NC(=O)[C@H](CO)NC(=O)[C@H](Cc1ccncc1)NC(=O)[C@H](CC(=O)O)NC(=O)[C@H](CO)NC(=O)[C@@H](NC(=O)[C@](C)(Cc1ccccc1F)NC(=O)[C@@H](NC(=O)CNC(=O)[C@H](CCC(=O)O)NC(=O)C(C)(C)NC(=O)[C@@H](N)Cc1ccc(O)cc1)[C@@H](C)O)[C@@H](C)O)[C@@H](C)CC)[C@@H](C)CC)C(=O)N[C@@H](CCC(=O)O)C(=O)NCC(=O)NCC(=O)N1CCC[C@H]1C(=O)N[C@@H](CO)C(=O)N[C@@H](CO)C(=O)NCC(=O)N[C@@H](C)C(=O)N1CCC[C@H]1C(=O)N1CCC[C@H]1C(=O)N1CCC[C@H]1C(=O)N[C@@H](CO)C(N)=O [Example 162]				> 9950	89.7	0.022
CC[C@H](C)[C@H](NC(=O)[C@H](CC(C)C)NC(=O)[C@](C)(Cc1ccc(O)cc1)NC(=O)[C@@H](CCC(=O)O)NC(=O)[C@@H](NC(=O)[C@H](Cc1ccccc1)NC(=O)[C@H](CCC(=O)O)NC(=O)[C@](C)(Cc1ccccc1)NC(=O)[C@H](CCC(N)=O)NC(=O)[C@H](C)NC(=O)[C@H](CCCCNC(=O)COCCOCCNC(=O)COCCOCCNC(=O)CC[C@H](NC(=O)CCCCCCCCCCCCC(=O)O)C(=O)O)NC(=O)[C@H](CCCN)NC(=O)[C@H](CC(=O)O)NC(=O)[C@H](CC(C)C)NC(=O)[C@](C)(CC(C)C)NC(=O)[C@@H](NC(=O)[C@H](CO)NC(=O)[C@H](Cc1ccncc1)NC(=O)[C@H](CC(=O)O)NC(=O)[C@H](CO)NC(=O)[C@@H](NC(=O)[C@](C)(Cc1ccccc1F)NC(=O)[C@@H](NC(=O)CNC(=O)[C@H](CCC(=O)O)NC(=O)C(C)(C)NC(=O)[C@@H](N)Cc1ccc(O)cc1)[C@@H](C)O)[C@@H](C)O)[C@@H](C)CC)[C@@H](C)CC)C(=O)N[C@@H](CCC(=O)O)C(=O)NCC(=O)NCC(=O)N[C@@H](CCCCNC(=O)COCCOCCNC(=O)COCCOCCNC(=O)CC[C@H](NC(=O)CCCCCCCCCCCCC(=O)O)C(=O)O)C(=O)N[C@@H](CO)C(=O)N[C@@H](CO)C(=O)NCC(=O)N[C@@H](C)C(=O)N1CCC[C@H]1C(=O)N1CCC[C@H]1C(=O)N1CCC[C@H]1C(=O)N[C@@H](CO)C(N)=O [Example 169]	> 9950	96.1				
CC[C@H](C)[C@H](NC(=O)[C@H](CC(C)C)NC(=O)[C@](C)(Cc1ccc(O)cc1)NC(=O)[C@@H](CCC(=O)O)NC(=O)[C@@H](NC(=O)[C@H](Cc1ccccc1)NC(=O)[C@H](CCC(=O)O)NC(=O)C1(NC(=O)[C@H](CCC(N)=O)NC(=O)[C@H](C)NC(=O)[C@H](CCCCNC(=O)COCCOCCNC(=O)COCCOCCNC(=O)CC[C@H](NC(=O)CCCCCCCCCCCCC(=O)O)C(=O)O)NC(=O)[C@H](CCCN)NC(=O)[C@H](CC(=O)O)NC(=O)[C@H](CC(C)C)NC(=O)[C@](C)(CC(C)C)NC(=O)[C@@H](NC(=O)[C@H](CO)NC(=O)[C@H](Cc2ccncc2)NC(=O)[C@H](CC(=O)O)NC(=O)[C@H](CO)NC(=O)[C@@H](NC(=O)[C@](C)(Cc2ccccc2F)NC(=O)[C@@H](NC(=O)CNC(=O)[C@H](CCC(=O)O)NC(=O)C(C)(C)NC(=O)[C@@H](N)Cc2ccc(O)cc2)[C@@H](C)O)[C@@H](C)O)[C@@H](C)CC)CCCCC1)[C@@H](C)CC)C(=O)N[C@@H](CCC(=O)O)C(=O)NCC(=O)NCC(=O)N[C@@H](CCCCNC(=O)COCCOCCNC(=O)COCCOCCNC(=O)CC[C@H](NC(=O)CCCCCCCCCCCCC(=O)O)C(=O)O)C(=O)N[C@@H](CO)C(=O)N[C@@H](CO)C(=O)NCC(=O)N[C@@H](C)C(=O)N1CCC[C@H]1C(=O)N1CCC[C@H]1C(=O)N1CCC[C@H]1C(=O)N[C@@H](CO)C(N)=O [Example 171]	> 9950	95.3	0.0389			
CC[C@H](C)[C@H](NC(=O)[C@H](CC(C)C)NC(=O)[C@](C)(Cc1ccc(O)cc1)NC(=O)[C@@H](CCC(=O)O)NC(=O)[C@@H](NC(=O)[C@H](Cc1ccccc1)NC(=O)[C@H](CCC(=O)O)NC(=O)C(C)(C)NC(=O)[C@H](CCC(N)=O)NC(=O)[C@H](C)NC(=O)[C@H](CCCCNC(=O)COCCOCCNC(=O)COCCOCCNC(=O)CC[C@H](NC(=O)CCCc1ccc(C(C)(C)C)cc1)C(=O)O)NC(=O)[C@H](CCCN)NC(=O)[C@H](CC(=O)O)NC(=O)[C@H](CC(C)C)NC(=O)[C@](C)(CC(C)C)NC(=O)[C@@H](NC(=O)C(C)(C)NC(=O)[C@@H](NC(=O)[C@H](CC(=O)O)NC(=O)[C@H](CO)NC(=O)[C@@H](NC(=O)[C@](C)(Cc1ccccc1F)NC(=O)[C@@H](NC(=O)CNC(=O)[C@H](CCC(=O)O)NC(=O)C(C)(C)NC(=O)[C@@H](N)Cc1ccc(O)cc1)[C@@H](C)O)[C@@H](C)O)C(C)C)[C@@H](C)CC)[C@@H](C)CC)C(=O)N[C@@H](CCC(=O)O)C(=O)NCC(=O)NCC(=O)N[C@@H](CCCCNC(=O)COCCOCCNC(=O)COCCOCCNC(=O)CC[C@H](NC(=O)CCCc1ccc(C(C)(C)C)cc1)C(=O)O)C(=O)N[C@@H](CO)C(=O)N[C@@H](CO)C(=O)NCC(=O)N[C@@H](C)C(=O)N1CCC[C@H]1C(=O)N1CCC[C@H]1C(=O)N1CCC[C@H]1C(=O)N[C@@H](CO)C(N)=O [Example 177]	> 9950	113				
